Publication PMC6134108, “Nystatin-like Pseudonocardia polyene B1, a novel disaccharide-containing antifungal heptaene antibiotic” (Scientific Reports, 2018)
In brackets after ≈: the same amount, converted by molar mass. Read-outs that look alike come from different tables or passages of the source.

Legend:
C. albicans SL28 = experiment: MIC assay (CLSI M27-A3 microbroth); assay type: cell-based; conditions: Candida albicans
Experimental: (§1) For the minimum inhibitory concentration (MIC) assay, strains for testing were grown on YPD agar for 24 hours, and subcultured to YPD broth medium. Whole strains were incubated for 18 hours at 35 °C by shaking incubator. Grown organisms were diluted with fresh RPMI 1640 medium to appropriate concentration, 5 × 10^4 CFU/ml. Cultures were inoculated to 96-well plates containing antifungal medium. All compounds were dissolved using Dimethyl Sulfoxide (DMSO) and diluted broth media. Fungal diluted solution and antifungal medium were mixed at 1:1 ratio so total 200 ul mixed medium was made. Whole experiment plates were incubated for 24 hours at 37 °C. […] The MICs were calculated in duplicate using the Clinical and Laboratory Standards Institute M27-A3 microbroth methodology. Hemolysis experiments and the 3-(4,5-dimethylthiazol-2-yl)-5-(3-carboxymethoxyphenyl)-2-(4-sulfophenyl)-2H-tetrazolium (MTS) cell proliferation colorimetric assay were performed following known procedures[12],[27],[29].

C. albicans SL38 = experiment: MIC assay (CLSI M27-A3 microbroth); assay type: cell-based; conditions: Candida albicans
Experimental: as §1

[1] = test system: Candida albicans KCTC7965; experiment: MIC assay (CLSI M27-A3 microbroth); assay type: cell-based
Experimental: as §1

C. albicans SC5314 [2] = experiment: MIC assay (CLSI M27-A3 microbroth); assay type: cell-based; conditions: Candida albicans
Experimental: as §1

[3] = design: method as in PMID 22382166; conditions: cited from earlier work
in vivo [4] = conditions: mouse, 1 mg/kg
Text: Supplement 41598_2018_31801_MOESM1_ESM.docx, table 4: Table S4.

[5] = Microsomal (metabolic) stability; assay type: in vitro ADME; conditions: human liver microsomes 1.0 mg/ml; for half-life at 1 µM / microsomal CLint at 1 µM / remaining at 80 min, 1 µM: pH 7.4; for remaining at 80 min, 1 µM: 80-min incubation
Experimental: A metabolic stability experiment was conducted to calculate the rate of disappearance of polyene macrolides following in vitro incubation with human microsomes. Working solutions of polyene macrolides were prepared from a 10 mM stock solution in dimethyl sulfoxide (DMSO) diluted to a final concentration of 1 µM in 0.1 M potassium phosphate buffer (pH 7.4). Each incubation mixture included 1 mg/mL human microsomal protein (BD Gentest^TM, Franklin Lakes, NJ, USA) and 1 mM NADPH. The reactions were terminated at 0, 15, 45, and 80 min. The reaction mixtures were vigorously vortexed and then analyzed using the API2000 LC-MS/MS) system (Applied Biosystems, USA) using an Xterra MS C18 (3.5-µm, 2.1 × 50 mm, Waters).

[6] = rats, oral administration
[7] = 7-day repeated intravenous dose toxicity; assay type: in vivo, mice; conditions: both sexes, ICR, mouse, in vivo; mice, 7-day repeated intravenous doses; read-out: MTD, maximal tolerated dose
Experimental: All in vivo mouse toxicity studies were conducted according to Testing Guidelines for Safety Evaluation of Drugs[32] and the Organisation for Economic Co-operation and Development (OECD) Guideline[33]. Male and female ICR mice were used 7 weeks old for the toxicity test. […]

[8] = Single intravenous dose acute toxicity; assay type: in vivo, mice; conditions: both sexes, ICR, mouse, in vivo; mice, single intravenous administration; read-out: LD50, median lethal dose (dose causing 50% mortality)
Experimental: All in vivo mouse toxicity studies were conducted according to Testing Guidelines for Safety Evaluation of Drugs[32] and the Organisation for Economic Co-operation and Development (OECD) Guideline[33]. Male and female ICR mice were used 7 weeks old for the toxicity test. […] The single doses were 1, 2.5, and 5 mg per kg body weight.

horse blood cells = assay type: cell-based
Experimental: as §1

[9] = design: method as in PMID 22382166; conditions: cited from earlier work; remark: listed apart in the source
[10] = cited from earlier work
in vivo [11] = conditions: male, SD, rat, iv, 1 mg/kg
C. albicans SC5314 [12] = experiment: In vivo efficacy, candidiasis-infected mouse model (survival); design: species or system Candida albicans; conditions: ICR mice infected with C. albicans SC5314; low dose 0.1 mg/kg
Text: The systemic infection animal model was established using 4-week-old male ICR mice. Five C. albicans strains, consisting of two standard (C. albicans SC5314 and KCTC7965) and three clinical (C. albicans SL23, SL28, and SL38) strains were intravenously injected into the lateral tail vein of the various mouse groups. The mice were daily monitored for signs and mortality, and then they were euthanized. Subsequently, the target pathogenic C. albicans strain and optimal concentration for systemic infection for C. albicans were determined. A clinical isolate of C. albicans (SC5314) was grown and subcultured at 35 °C on Sabouraud dextrose agar (SDA) before infection. Candidiasis was induced by injecting 5 × 10^5 CFU/mouse via the tail vein of six 4-week-old ICR male mice. Each animal in the treatment group was administered a subcutaneous injection of reconstituted polyene macrolides 4 h after the infection. The drug efficacy was investigated by determining the survival rates of the mice.

CC(=O)NC1C(OC2C(C)OC(OC3C=CC=CC=CC=CCCC=CC=CC(C)C(O)C(C)C(C)OC(=O)CC(O)CC(O)CC(O)CCC(O)C(O)CC4(O)CC(O)C(C(=O)O)C(C3)O4)C(O)C2N)OC(CO)C(O)C1O (stereo not drawn) [NPP A1, nystatin-like Pseudonocardia polyene (NPP) A1]
MIC (C. albicans SL28; SL28, read-out: Antifungal activity (MIC)): 16 µg/mL (≈ 14.2 µM) | MIC (C. albicans SL38; SL38, read-out: Antifungal activity (MIC)): 16 µg/mL (≈ 14.2 µM) | MIC ([1]; Candida albicans, KCTC7965, read-out: Antifungal activity (MIC)): 16 µg/mL (≈ 14.2 µM) | MIC (C. albicans SC5314 [2]; SC5314, read-out: Antifungal activity (MIC)): 16 µg/mL (≈ 14.2 µM) | water-solubility, fold higher than nystatin A1 [3]: 300 fold | AUC(0-inf) (in vivo [4]; read-out: AUC0-inf): 12700 ng·h/mL | AUC(0-t) (in vivo [4]; read-out: AUC0-t): 12400 ng·h/mL | clearance (in vivo [4]; read-out: CL (converted)): 1.67 mL/min/kg | MRT inf (in vivo [4]; read-out: MRTinf): 66 min | Vd (in vivo [4]; read-out: Vss): 0.1 L/kg | half-life (in vivo [4]; read-out: t1/2 (converted)): 60 min | Clearance class [5]: Low | half-life at 1 µM [5]: > 80 min | microsomal CLint at 1 µM [5]: < 8600 µL/min/mg | remaining at 80 min, 1 µM [5]: 60.9% | detection in the plasma following oral administration [6]: not detected | MTD at 7 days [7]: 5 to 10 mg/kg | LD50 at 7 days [8]: 16.1 mg/kg | Hemolytic activity (MHC, minimum hemolytic concentration) (horse blood cells; 90% hemolysis against horse blood cells, ± percentage standard deviation): 459.35 ± 32.5 µg/mL | antifungal activity, lower than nystatin A1 [9]: approximately 50% | hemolytic activity, fold reduced versus nystatin A1 [10]: 10 fold | AUC(0-inf) (in vivo [11]; plasma): 4470 ng·h/mL | AUC(0-t) (in vivo [11]; plasma): 4390 ng·h/mL | MRT inf (in vivo [11]; plasma): 42 min | Vd (in vivo [11]; plasma): 0.1 L/kg | clearance (in vivo [11]; plasma): 3.33 mL/min/kg | half-life (in vivo [11]; plasma): 36 min

C[C@@H]1[C@H](O)[C@@H](C)/C=C/C=C/CC/C=C/C=C/C=C/C=C/[C@H](O[C@@H]2O[C@H](C)[C@@H](O)[C@H](N)[C@@H]2O)C[C@@H]2O[C@](O)(C[C@@H](O)[C@H](O)CC[C@@H](O)C[C@@H](O)C[C@@H](O)CC(=O)O[C@H]1C)C[C@H](O)[C@H]2C(=O)O [Nystatin A1, nystatin A1]
MIC (C. albicans SL28; C. albicans SL28, no visible growth, read-out: Antifungal activity (MIC)): 4 µg/mL (≈ 4.32 µM) | MIC (C. albicans SL38; C. albicans SL38, no visible growth, read-out: Antifungal activity (MIC)): 4 µg/mL (≈ 4.32 µM) | MIC ([1]; Candida albicans KCTC7965, no visible growth, read-out: Antifungal activity (MIC)): 4 µg/mL (≈ 4.32 µM) | MIC (C. albicans SC5314 [2]; C. albicans SC5314, no visible growth, read-out: Antifungal activity (MIC)): 4 µg/mL (≈ 4.32 µM) | AUC(0-inf) (in vivo [4]): 7150 ng·h/mL | AUC(0-t) (in vivo [4]): 7120 ng·h/mL | MRT inf (in vivo [4]): 54 min | Vd (in vivo [4]): 0.1 L/kg | clearance (in vivo [4]): 1.67 mL/min/kg | half-life (in vivo [4]): 36 min | Clearance class [5]: Low | half-life at 1 µM [5]: > 80 min | microsomal CLint at 1 µM [5]: < 8600 µL/min/mg | remaining at 80 min, 1 µM [5]: 115% | survival rate (C. albicans SC5314 [12]): gradually decreased | MTD at 7 days [7]: 2 to 4 mg/kg | LD50 at 7 days [8]: 5.37 mg/kg | Hemolytic activity (MHC, minimum hemolytic concentration) (horse blood cells; horse): 66.17 ± 0.90 µg/mL | MRT inf (in vivo [11]; in vivo): 48 min | AUC(0-inf) (in vivo [11]; plasma): 5300 ng·h/mL | AUC(0-t) (in vivo [11]; plasma): 5120 ng·h/mL | Vd (in vivo [11]; plasma): 0.2 L/kg | clearance (in vivo [11]; plasma): 3.33 mL/min/kg | half-life (in vivo [11]; plasma): 36 min
